Reference: US10660876B2, “Amino compounds for treatment of medical disorders” (Achillion Pharmaceuticals, Inc., priority 2015, dated 2020)

The compounds below were run against Human Factor D (Homo sapiens (Human), UniProt P00746) (assay: Human Factor D Assay). Details: Table 1; Factor D purified from human serum, 80 nM, substrate Z-L-Lys-SBzl; read-out: IC50.
Sequence of Human Factor D (P00746 26-253): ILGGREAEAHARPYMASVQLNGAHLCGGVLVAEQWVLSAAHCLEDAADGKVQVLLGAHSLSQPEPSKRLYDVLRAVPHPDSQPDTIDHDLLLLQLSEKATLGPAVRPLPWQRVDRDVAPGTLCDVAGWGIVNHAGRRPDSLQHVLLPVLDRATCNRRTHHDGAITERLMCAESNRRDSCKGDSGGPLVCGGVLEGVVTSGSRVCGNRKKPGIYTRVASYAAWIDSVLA
Type: biochemical
Description: Example 12. Human Factor D Assay
Human Factor D (purified from human serum, Complement Technology, Inc.) at 80 nM final concentration is incubated with test compound at various concentrations for 5 minutes at room temperature in 50 mM Tris, 1M NaCl, pH 7.5. A synthetic substrate Z-L-Lys-SBzl and DTNB (Ellman's reagent) are added to final concentrations of 100 μM each. Absorbance at 405 nm (A405) is recorded at 30 second intervals for 30 minutes using a microplate spectrophotometer. IC50 values are calculated by nonlinear regression of complement Factor D reaction rates as a function of test compound concentration.
With `CC(=O)c1cn(CC(=O)N2C[C@H](F)C[C@H]2C(=O)Nc2cc3c(cc2F)OC(F)(F)O3)c2ccc(Nc3cncnc3)cc12` [Compound 35, (2S,4R)-1-(2-(3-acetyl-5-(pyrimidin-5-ylamino)-1H-indol-1-yl)acetyl)-4-fluoro-N-(2,2,6-trifluorobenzo[d] [1,3]dioxol-5-yl)pyrrolidine-2-carboxamide] the IC50 was under 1000 nM.
`CC(=O)c1cn(CC(=O)N2C[C@H](F)C[C@H]2C(=O)Nc2ccc3[nH]c(C)c(C)c3c2)c2ccc(Nc3cncnc3)cc12` [Compound 38, (2S,4R)-1-(2-(3-acetyl-5-(pyrimidin-5-ylamino)-1H-indol-1-yl)acetyl)-N-(2,3-dimethyl-1H-indol-5-yl)-4-fluoropyrrolidine-2-carboxamide] was tested, and the IC50 was under 1000 nM.
For `CC(=O)c1cn(C(=O)CN2C[C@H](F)C[C@H]2C(=O)Nc2nnc(-c3ccc(Cl)c(Cl)c3)s2)c2ccc(Nc3cncnc3)cc12` [Compound 39, (2S,4R)-1-(2-(3-acetyl-5-(pyrimidin-5-ylamino)-1H-indol-1-yl)-2-oxoethyl)-N-(5-(3,4-dichlorophenyl)-1,3,4-thiadiazol-2-yl)-4-fluoropyrrolidine-2-carboxamide], the IC50 was over 10000 nM.
With `CC(=O)c1cn(CC(=O)N2C[C@H](F)C[C@H]2C(=O)Nc2cc(C)nc3nc(C(F)(F)F)nn23)c2ccc(Nc3cncnc3)cc12` [Compound 41, (2S,4R)-1-(2-(3-acetyl-5-(pyrimidin-5-ylamino)-1H-indol-1-yl)acetyl)-4-fluoro-N-(5-methyl-2-(trifluoromethyl)-[1,2,4]triazolo[1,5-a]pyrimidin-7-yl)pyrrolidine-2-carboxamide] the IC50 was over 10000 nM.
`CC(=O)c1cn(CC(=O)N2C[C@H](F)C[C@H]2C(=O)NC2CCCN(c3cnn(C)c3)C2)c2ccc(Nc3cncnc3)cc12` (stereo partly drawn) [Compound 42, (2S,4R)-1-(2-(3-acetyl-5-(pyrimidin-5-ylamino)-1H-indol-1-yl)acetyl)-4-fluoro-N-(1-(1-methyl-1H-pyrazol-4-yl)piperidin-3-yl)pyrrolidine-2-carboxamide] was tested, and the IC50 was under 1000 nM.
Compound `CC(=O)c1cn(CC(=O)N2C[C@H](F)C[C@H]2C(=O)NCc2cccnc2)c2ccc(Nc3cncnc3)cc12` [Compound 43, (2S,4R)-1-(2-(3-acetyl-5-(pyrimidin-5-ylamino)-1H-indol-1-yl)acetyl)-4-fluoro-N-(pyridin-3-ylmethyl) pyrrolidine-2-carboxamide] has an IC50 of under 1000 nM.
`CC(=O)c1cn(CC(=O)N2C[C@H](F)C[C@H]2C(=O)Nc2ncc(Br)cn2)c2ccc(Nc3cncnc3)cc12` [Compound 44, (2S,4R)-1-(2-(3-acetyl-5-(pyrimidin-5-ylamino)-1H-indol-1-yl)acetyl)-N-(5-bromopyrimidin-2-yl)-4-fluoropyrrolidine-2-carboxamide] showed an IC50 of under 1000 nM.
With `CC(=O)c1cn(CC(=O)N2C[C@H](F)C[C@H]2C(=O)Nc2ccc(OCc3ccccc3)cn2)c2ccc(Nc3cncnc3)cc12` [Compound 45, (2S,4R)-1-(2-(3-acetyl-5-(pyrimidin-5-ylamino)-1H-indol-1-yl)acetyl)-N-(5-(benzyloxy)pyridin-2-yl)-4-fluoropyrrolidine-2-carboxamide] the IC50 was under 1000 nM.
`CC(=O)c1cn(CC(=O)N2C[C@H](F)C[C@H]2C(=O)Nc2ccc3ccccc3c2)c2ccc(Nc3cncnc3)cc12` [Compound 46, (2S,4R)-1-(2-(3-acetyl-5-(pyrimidin-5-ylamino)-1H-indol-1-yl)acetyl)-4-fluoro-N-(naphthalen-2-yl)pyrrolidine-2-carboxamide] showed an IC50 of under 1000 nM.
Work on `CC(=O)c1cn(CC(=O)N2C[C@H](F)C[C@H]2C(=O)Nc2cncc(Br)n2)c2ccc(Nc3cncnc3)cc12` [Compound 47, (2S,4R)-1-(2-(3-acetyl-5-(pyrimidin-5-ylamino)-1H-indol-1-yl)acetyl)-N-(6-bromopyrazin-2-yl)-4-fluoropyrrolidine-2-carboxamide] yielded an IC50 of under 1000 nM.
`CC(=O)c1cn(CC(=O)N2C[C@H](F)C[C@H]2C(=O)Nc2nc(-c3ccc4c(c3)CCCC4)cs2)c2ccc(Nc3cncnc3)cc12` [Compound 50, (2S,4R)-1-(2-(3-acetyl-5-(pyrimidin-5-ylamino)-1H-indol-1-yl)acetyl)-4-fluoro-N-(4-(5,6,7,8-tetrahy-dronaphthalen-2-yl)thiazol-2-yl)pyrrolidine-2-carboxamide] was tested, and the IC50 was over 10000 nM.
`CC(=O)c1cn(CC(=O)N2C[C@H](F)C[C@H]2C(=O)Nc2noc3cc(C(F)(F)F)ccc23)c2ccc(Nc3cncnc3)cc12` [Compound 52, (2S,4R)-1-(2-(3-acetyl-5-(pyrimidin-5-ylamino)-1H-indol-1-yl)acetyl)-4-fluoro-N-(6-(trifluoromethyl)benzo[d]isoxazol-3-yl)pyrrolidine-2-carboxamide] gave an IC50 of 1000 to 10000 nM.
Compound `CC(=O)c1cn(CC(=O)N2C[C@H](F)C[C@H]2C(=O)Nc2ccc3ncsc3c2)c2ccc(Nc3cncnc3)cc12` [Compound 56, (2S,4R)-1-(2-(3-acetyl-5-(pyrimidin-5-ylamino)-1H-indol-1-yl)acetyl)-N-(benzo[d]thiazol-6-yl)-4-fluoropyrrolidine-2-carboxamide] has an IC50 of under 1000 nM.
Compound `CC(=O)c1cn(CC(=O)N2C[C@H](F)C[C@H]2C(=O)Nc2cc(C)nn2-c2ccccc2F)c2ccc(Nc3cncnc3)cc12` [Compound 57, (2S,4R)-1-(2-(3-acetyl-5-(pyrimidin-5-ylamino)-1H-indol-1-yl)acetyl)-4-fluoro-N-(1-(2-fluorophenyl)-3-methyl-1H-pyrazol-5-yl)pyrrolidine-2-carboxamide] has an IC50 of under 1000 nM.
With `CC(=O)c1cn(CC(=O)N2C[C@H](F)C[C@H]2C(=O)NC2CCCN(c3ccccc3Cl)C2=O)c2ccc(Nc3cncnc3)cc12` (stereo partly drawn) [Compound 58, (2S,4R)-1-(2-(3-acetyl-5-(pyrimidin-5-ylamino)-1H-indol-1-yl)acetyl)-N-(1-(2-chlorophenyl)-2-oxopiperidin-3-yl)-4-fluoropyrrolidine-2-carboxamide] the IC50 was under 1000 nM.
Work on `CC(=O)c1cn(CC(=O)N2C[C@H](F)C[C@H]2C(=O)NCc2ccncc2)c2ccc(Nc3cncnc3)cc12` [Compound 59, (2S,4R)-1-(2-(3-acetyl-5-(pyrimidin-5-ylamino)-1H-indol-1-yl)acetyl)-4-fluoro-N-(pyridin-4-ylmethyl) pyrrolidine-2-carboxamide] yielded an IC50 of under 1000 nM.
`CC(=O)c1cn(CC(=O)N2C[C@H](F)C[C@H]2C(=O)Nc2nc(-c3cccc(Cl)c3)ns2)c2ccc(Nc3cncnc3)cc12` [Compound 60, (2S,4R)-1-(2-(3-acetyl-5-(pyrimidin-5-ylamino)-1H-indol-1-yl)acetyl)-N-(3-(3-chlorophenyl)-1,2,4-thiadiazol-5-yl)-4-fluoropyrrolidine-2-carboxamide] gave an IC50 of over 10000 nM.
`CC(=O)c1cn(CC(=O)N2C[C@H](F)C[C@H]2C(=O)Nc2ccccc2-c2nncn2C)c2ccc(Nc3cncnc3)cc12` [Compound 61, (2S,4R)-1-(2-(3-acetyl-5-(pyrimidin-5-ylamino)-1H-indol-1-yl)acetyl)-4-fluoro-N-(2-(4-methyl-4H-1,2,4-triazol-3-yl)phenyl) pyrrolidine-2-carboxamide] was tested, and the IC50 was over 10000 nM.
`CC(=O)c1cn(CC(=O)N2C[C@H](F)C[C@H]2C(=O)Nc2noc(-c3ccccc3Cl)n2)c2ccc(Nc3cncnc3)cc12` [Compound 62, (2S,4R)-1-(2-(3-acetyl-5-(pyrimidin-5-ylamino)-1H-indol-1-yl)acetyl)-N-(5-(2-chlorophenyl)-1,2,4-oxadiazol-3-yl)-4-fluoropyrrolidine-2-carboxamide] gave an IC50 of under 1000 nM.
For `CC(=O)c1cn(CC(=O)N2C[C@H](F)C[C@H]2C(=O)NC2CCCN(c3cc(C)ccc3F)C2=O)c2ccc(Nc3cncnc3)cc12` (stereo partly drawn) [Compound 63, (2S,4R)-1-(2-(3-acetyl-5-(pyrimidin-5-ylamino)-1H-indol-1-yl)acetyl)-4-fluoro-N-(1-(2-fluoro-5-methylphenyl)-2-oxopiperidin-3-yl)pyrrolidine-2-carboxamide], the IC50 was under 1000 nM.
In the case of `CC(=O)c1cn(CC(=O)N2C[C@H](F)C[C@H]2C(=O)NC2CCN(c3ccn(C)n3)C2=O)c2ccc(Nc3cncnc3)cc12` (stereo partly drawn) [Compound 64, (2S,4R)-1-(2-(3-acetyl-5-(pyrimidin-5-ylamino)-1H-indol-1-yl)acetyl)-4-fluoro-N-(1-(1-methyl-1H-pyrazol-3-yl)-2-oxopyrrolidin-3-yl)pyrrolidine-2-carboxamide], the IC50 is reported as under 1000 nM.
Compound `CC(=O)c1cn(CC(=O)N2C[C@H](F)C[C@H]2C(=O)Nc2cc(C3CC3C)no2)c2ccc(Nc3cncnc3)cc12` (stereo partly drawn) [Compound 65, (2S,4R)-1-(2-(3-acetyl-5-(pyrimidin-5-ylamino)-1H-indol-1-yl)acetyl)-4-fluoro-N-(3-(2-methylcyclopropyl)isoxazol-5-yl)pyrrolidine-2-carboxamide] has an IC50 of under 1000 nM.
`CC(=O)c1cn(CC(=O)N2C[C@H](F)C[C@H]2C(=O)Nc2n[nH]c(C)c2-c2ccccc2)c2ccc(Nc3cncnc3)cc12` [Compound 66, (2S,4R)-1-(2-(3-acetyl-5-(pyrimidin-5-ylamino)-1H-indol-1-yl)acetyl)-4-fluoro-N-(5-methyl-4-phenyl-1H-pyrazol-3-yl)pyrrolidine-2-carboxamide] showed an IC50 of under 1000 nM.
`CC(=O)c1cn(CC(=O)N2C[C@H](F)C[C@H]2C(=O)Nc2nn(C)c3c2CC(C)C(=O)N3)c2ccc(Nc3cncnc3)cc12` (stereo partly shown) [Compound 67, (2S 4R)-1-(2-(3-acetyl-5-(pyrimidin-5-ylamino)-1H-indol-1-yl)acetyl)-N-(1,5-dimethyl-6-oxo-4,5,6,7-tetrahydro-1H-pyrazolo[3,4-b]pyridin-3-yl)-4-fluoropyrrolidine-2-carboxamide] gave an IC50 of 1000 to 10000 nM.
In the case of `CC(=O)c1cn(CC(=O)N2C[C@H](F)C[C@H]2C(=O)Nc2cccc(O)n2)c2ccc(Nc3cncnc3)cc12` [Compound 68, (2S,4R)-1-(2-(3-acetyl-5-(pyrimidin-5-ylamino)-1H-indol-1-yl)acetyl)-4-fluoro-N-(6-hydroxypyridin-2-yl)pyrrolidine-2-carboxamide], the IC50 is reported as under 1000 nM.
